Values of other authors, collected in PubChem BioAssay AID1259410 (Chemical Carcinogenesis Research Information System (CCRIS), 2018).

Tested on: rodent tumor promotion studies, tumor incidence
Experiment: CCRIS tumor promotion studies

CCCCCCCCCCCCCC(=O)O[C@@H]1[C@@H](C)[C@@]2(O)[C@@H](C=C(CO)C[C@]3(O)C(=O)C(C)=C[C@@H]23)[C@@H]2C(C)(C)[C@]12OC(C)=O
outcome (Carcinogen: 7,12-DIMETHYLBENZ(A)ANTHRACENE, Doses [Carcinogen]: IG TO MOTHERS, Route [Carcinogen]: GAVAGE, Route [Promoter]: DERMAL, Species: MOUSE, Strain/Sex: NMRI/MALE,FEMALE): integumentary system (skin); forestomach; stomach; liver; lung; colon; kidney; r | outcome (Carcinogen: 7,12-DIMETHYLBENZ(A)ANTHRACENE, Doses [Carcinogen]: IG, Route [Carcinogen]: GAVAGE, Route [Promoter]: GAVAGE, Species: MOUSE, Strain/Sex: FEMALE): forestomach | outcome (Carcinogen: 7,12-DIMETHYLBENZ(A)ANTHRACENE, Doses [Carcinogen]: TOP, Route [Carcinogen]: DERMAL, Route [Promoter]: DERMAL, Species: MOUSE, Strain/Sex: MALE,FEMALE): integumentary system (skin) | outcome (Carcinogen: 7,12-DIMETHYLBENZ(A)ANTHRACENE, Doses [Carcinogen]: TRANS-PLACENTAL, Route [Carcinogen]: TRANS-PLACENTAL, Route [Promoter]: DERMAL, Species: MOUSE, Strain/Sex: NMRI/MALE,FEMALE): integumentary system (skin); lung; liver | outcome (Carcinogen: 7,12-DIMETHYLBENZO[K]FLUORANTHENE, 95741-56-3, Doses [Carcinogen]: 4 UMOL (TOTAL DOSE) ADMINISTERED IN 10 SUBDOSES 1/2 D, Doses [Promoter]: 2.5 UG IN 0.1 ML ACETONE 3/WK FOR 30 WK BEGINNING 10 D POST CARCINOGEN TREATMENT (STUDY DURATION: 33 WK), Route [Carcinogen]: DERMAL, Route [Promoter]: DERMAL, Species: MOUSE, Strain/Sex: CRL:CD-1/FEMALE): skin: tumor | outcome (Carcinogen: 7,12-DIMETHYLBENZ[A]ANTHRACENE-3,4-DIOL, 71964-72-2, Doses [Carcinogen]: 4, 10 NMOL ONCE, Doses [Promoter]: 0, 3.4 NMOL 2/WK FOR 19 WK BEGINNING 2 WK POST CARCINOGEN DOSE (STUDY DURATION: 21 WK), Route [Carcinogen]: DERMAL, Route [Promoter]: DERMAL, Species: MOUSE, Strain/Sex: SENCAR/FEMALE): skin: papilloma | outcome (Carcinogen: 7,12-DIMETHYLBENZ[A]ANTHRACENE, 57-97-6, Doses [Carcinogen]: 1 NMOL IN 100 µL ACETONE, Doses [Promoter]: 2.16 NMOL IN 100 µL ACETONE 2/WK FOR 27 WK BEGINNING 1 WK POST CARCINOGEN DOSE (STUDY DURATION: 28 WK), Route [Carcinogen]: DERMAL, Route [Promoter]: DERMAL, Species: MOUSE, Strain/Sex: SENCAR/FEMALE): skin: tumor | outcome (Carcinogen: 7,12-DIMETHYLBENZ[A]ANTHRACENE, 57-97-6, Doses [Carcinogen]: 4, 20, 100 NMOL IN 100 µL ACETONE ONCE, Doses [Carcinogen]: 4, 20, 100 NMOL IN 100 µL ACETONE ONCE, Doses [Promoter]: 3.24 NMOL/100 µL ACETONE 2/WK BEGINNING 2 WK POST CARCINOGEN DOSE AND CONTINUING FOR 24 WK (STUDY DURATION: 27 WK), Route [Carcinogen]: DERMAL, Route [Promoter]: DERMAL, Species: MOUSE, Strain/Sex: SENCAR/FEMALE): skin: tumor | outcome (Carcinogen: 7,12-DIMETHYLBENZ[A]ANTHRACENE, 57-97-6, Doses [Carcinogen]: 10 NMOL APPLIED TO BACK ONCE, Doses [Promoter]: 1.5 NMOL 2/WK FOR 19 WK BEGINNING 1 WK POST CARCINOGEN DOSE (STUDY DURATION: 40 WK), Route [Carcinogen]: DERMAL, Route [Promoter]: DERMAL, Species: MOUSE, Strain/Sex: HRA/SKH/FEMALE): skin: papilloma | outcome (Carcinogen: 7,12-DIMETHYLBENZ[A]ANTHRACENE, 57-97-6, Doses [Carcinogen]: 20 NMOL IN ACETONE ONCE, Doses [Promoter]: 0, 0.2 ML OF 10 UG/ML SOLUTION IN ACETONE 2/WK FOR 51 WK (STUDY DURATION: 52 WK), Route [Carcinogen]: DERMAL, Route [Promoter]: DERMAL, Species: MOUSE, Strain/Sex: SENCAR/FEMALE): skin: squamous cell carcinoma | outcome (Carcinogen: 7,12-DIMETHYLBENZ[A]ANTHRACENE, 57-97-6, Doses [Carcinogen]: 20 NMOL ONCE, Doses [Promoter]: 0, 1, 2, 5 UG IN 200 µL ACETONE 2/WK FOR 23 WK BEGINNING 1 WK POST CARCINOGEN DOSE (STUDY DURATION: 24 WK), Doses [Promoter]: 0, 1, 2, 5 UG IN 200 µL ACETONE 2/WK FOR 23 WK BEGINNING 1 WK POST CARCINOGEN DOSE (STUDY DURATION: 24 WK), Route [Carcinogen]: DERMAL, Route [Promoter]: DERMAL, Species: MOUSE, Strain/Sex: 129/SVEV/FEMALE): skin: tumor | outcome (Carcinogen: 7,12-DIMETHYLBENZ[A]ANTHRACENE, 57-97-6, Doses [Carcinogen]: 100 NMOL ONCE, Doses [Promoter]: 0, 1, 2, 5 UG IN 200 µL ACETONE 2/WK FOR 23 WK BEGINNING 1 WK POST CARCINOGEN DOSE (STUDY DURATION: 24 WK), Doses [Promoter]: 0, 1, 2, 5 UG IN 200 µL ACETONE 2/WK FOR 23 WK BEGINNING 1 WK POST CARCINOGEN DOSE (STUDY DURATION: 24 WK), Route [Carcinogen]: DERMAL, Route [Promoter]: DERMAL, Species: MOUSE, Strain/Sex: 129/SVEV/FEMALE): skin: tumor | outcome (Carcinogen: 7,12-DIMETHYLBENZ[A]ANTHRACENE, 57-97-6, Doses [Carcinogen]: 100 NMOL ONCE, Doses [Promoter]: 10 NMOL 2/WK FOR 24 WK BEGINNING 1 WK POST CARCINOGEN DOSE (STUDY DURATION: 25 WK), Route [Carcinogen]: DERMAL, Route [Promoter]: DERMAL, Species: NMRI/FEMALE G, Strain/Sex: NMRI/FEMALE): skin: tumor | outcome (Carcinogen: 7,12-DIMETHYLBENZ[A]ANTHRACENE, 57-97-6, Doses [Carcinogen]: 200 NMOL IN 100 µL ACETONE ONCE, Doses [Promoter]: 0, 5 NMOL IN 100 µL ACETONE 2/WK FOR 20 WK BEGINNING 1 WK POST CARCINOGEN DOSE (STUDY DURATION: 21 WK), Route [Carcinogen]: DERMAL, Route [Promoter]: DERMAL, Species: MOUSE, Strain/Sex: CD-1/FEMALE): skin: papilloma | outcome (Carcinogen: 7-FLUOROBENZO[B]FLUORANTHENE, 89883-22-7, Doses [Carcinogen]: 10, 40, 120, 400 NMOL (TOTAL DOSE) APPLIED 1/2 D FOR 10 SUBDOSES, Doses [Carcinogen]: 10, 40, 120, 400 NMOL (TOTAL DOSE) APPLIED 1/2 D FOR 10 SUBDOSES, Doses [Promoter]: 0, 2.5 UG IN 100 µL ACETONE 3/WK FOR 20 WK BEGINNING 10 D POST CARCINOGEN TREATMENT (STUDY DURATION: 22 WK), Route [Carcinogen]: DERMAL, Route [Promoter]: DERMAL, Species: MOUSE, Strain/Sex: CRL:CD-1/FEMALE): skin: tumor | outcome (Carcinogen: 7-METHYLBENZ[A]ANTHRACENE-3,4-DIOL, 175614-82-1, Doses [Carcinogen]: 200, 400 NMOL ONCE, Doses [Promoter]: 0, 3.4 NMOL 2/WK FOR 19 WK BEGINNING 2 WK POST CARCINOGEN DOSE (STUDY DURATION: 21 WK), Route [Carcinogen]: DERMAL, Route [Promoter]: DERMAL, Species: MOUSE, Strain/Sex: SENCAR/FEMALE): skin: papilloma | outcome (Carcinogen: 8-METHYLBENZO[K]FLUORANTHENE, 95741-54-1, Doses [Carcinogen]: 4 UMOL (TOTAL DOSE) ADMINISTERED IN 10 SUBDOSES 1/2 D, Doses [Promoter]: 2.5 UG IN 0.1 ML ACETONE 3/WK FOR 30 WK BEGINNING 10 D POST CARCINOGEN TREATMENT (STUDY DURATION: 33 WK), Route [Carcinogen]: DERMAL, Route [Promoter]: DERMAL, Species: MOUSE, Strain/Sex: CRL:CD-1/FEMALE): skin: tumor | outcome (Carcinogen: 9-FLUORO-7,12-DIMETHYLBENZ[A]ANTHRACENE-3,4-DIOL, 175614-88-7, Doses [Carcinogen]: 4, 10 NMOL ONCE, Doses [Promoter]: 0, 3.4 NMOL 2/WK FOR 19 WK BEGINNING 2 WK POST CARCINOGEN DOSE (STUDY DURATION: 21 WK), Route [Carcinogen]: DERMAL, Route [Promoter]: DERMAL, Species: MOUSE, Strain/Sex: SENCAR/FEMALE): skin: papilloma | outcome (Carcinogen: 9-FLUORO-7-METHYLBENZ[A]ANTHRACENE-3,4-DIOL, 175614-83-2, Doses [Carcinogen]: 200, 400 NMOL ONCE, Doses [Promoter]: 0, 3.4 NMOL 2/WK FOR 19 WK BEGINNING 2 WK POST CARCINOGEN DOSE (STUDY DURATION: 21 WK), Route [Carcinogen]: DERMAL, Route [Promoter]: DERMAL, Species: MOUSE, Strain/Sex: SENCAR/FEMALE): skin: papilloma | outcome (Carcinogen: 9-FLUORO-12-METHYLBENZ[A]ANTHRACENE-3,4-DIOL, 175614-86-5, Doses [Carcinogen]: 200, 400 NMOL ONCE, Doses [Promoter]: 0, 3.4 NMOL 2/WK FOR 19 WK BEGINNING 2 WK POST CARCINOGEN DOSE (STUDY DURATION: 21 WK), Route [Carcinogen]: DERMAL, Route [Promoter]: DERMAL, Species: MOUSE, Strain/Sex: SENCAR/FEMALE): skin: papilloma | outcome (Carcinogen: 9-METHYLBENZO[K]FLUORANTHENE, 95741-55-2, Doses [Carcinogen]: 4 UMOL (TOTAL DOSE) ADMINISTERED IN 10 SUBDOSES 1/2 D, Doses [Promoter]: 2.5 UG IN 0.1 ML ACETONE 3/WK FOR 30 WK BEGINNING 10 D POST CARCINOGEN TREATMENT (STUDY DURATION: 33 WK), Route [Carcinogen]: DERMAL, Route [Promoter]: DERMAL, Species: MOUSE, Strain/Sex: CRL:CD-1/FEMALE): skin: tumor | outcome (Carcinogen: 10-FLUORO-7,12-DIMETHYLBENZ[A]ANTHRACENE-3,4-DIOL, 175614-89-8, Doses [Carcinogen]: 4, 10 NMOL ONCE, Doses [Promoter]: 0, 3.4 NMOL 2/WK FOR 19 WK BEGINNING 2 WK POST CARCINOGEN DOSE (STUDY DURATION: 21 WK), Route [Carcinogen]: DERMAL, Route [Promoter]: DERMAL, Species: MOUSE, Strain/Sex: SENCAR/FEMALE): skin: papilloma | outcome (Carcinogen: 10-FLUORO-7-METHYLBENZ[A]ANTHRACENE-3,4-DIOL, 175614-84-3, Doses [Carcinogen]: 200, 400 NMOL ONCE, Doses [Promoter]: 0, 3.4 NMOL 2/WK FOR 19 WK BEGINNING 2 WK POST CARCINOGEN DOSE (STUDY DURATION: 21 WK), Route [Carcinogen]: DERMAL, Route [Promoter]: DERMAL, Species: MOUSE, Strain/Sex: SENCAR/FEMALE): skin: papilloma | outcome (Carcinogen: 10-FLUORO-12-METHYLBENZ[A]ANTHRACENE-3,4-DIOL, 175614-87-6, Doses [Carcinogen]: 200, 400 NMOL ONCE, Doses [Promoter]: 0, 3.4 NMOL 2/WK FOR 19 WK BEGINNING 2 WK POST CARCINOGEN DOSE (STUDY DURATION: 21 WK), Route [Carcinogen]: DERMAL, Route [Promoter]: DERMAL, Species: MOUSE, Strain/Sex: SENCAR/FEMALE): skin: papilloma | outcome (Carcinogen: 10-FLUOROBENZO[J]FLUORANTHENE, 129286-37-9, Doses [Carcinogen]: 1, 2 UMOL (TOTAL DOSE) ADMINISTERED IN SUBDOSES 1/2 D, Doses [Promoter]: 2.5 UG IN 100 µL ACETONE 3/WK FOR 20 WK BEGINNING 10 D POST LAST CARCINOGEN DOSE (STUDY DURATION: 27 WK), Route [Carcinogen]: DERMAL, Route [Promoter]: DERMAL, Species: MOUSE, Strain/Sex: CD-1/FEMALE): skin: tumor | outcome (Carcinogen: 12-METHYLBENZ[A]ANTHRACENE-3,4-DIOL, 175614-85-4, Doses [Carcinogen]: 200, 400 NMOL ONCE, Doses [Promoter]: 0, 3.4 NMOL 2/WK FOR 19 WK BEGINNING 2 WK POST CARCINOGEN DOSE (STUDY DURATION: 21 WK), Route [Carcinogen]: DERMAL, Route [Promoter]: DERMAL, Species: MOUSE, Strain/Sex: SENCAR/FEMALE): skin: papilloma
